Assays:
[1] = system: cellular levels of OAADPr in HEK-293 cells; test: Detection of cellular OAADPr by HPLC fractionation and MALDI mass spectrometry; type: cell-based; conditions: puromycin-treated vs mock-treated HEK-293 cells
Protocol: (§1) Shown is the development of whole cell currents over time in TRPM2-expressing HEK-293 cells. Bath solution was standard ringer's, and pipette solution was Cs-based and included 10 mM EGTA to buffer intracellular Ca^2+ to 10 nM. The patch pipette contained various concentrations of (FIG. 1a) ADPr, (FIG. 1b) OAADPr (FIG. 1c) OAADPr and puromycin as indicated in the figure. FIG. 1d.) Cytoplasmic OAADPr esterase activity is inhibited by puromycin. 200 μM O-[^3H]AADPr and 0-100 μM puromycin were added to cytoplasmic HEK-293 extract for 30 min. Percent hydrolysis of O-[^3H]AADPr to [^3H]acetate was measured as described hereinbelow. FIG. 1e.) Nuclear OAADPr acetyltransferase activity is not inhibited by puromycin. HEK-293 nuclear extract was incubated with 200 μM O-[^3H]AADPr in the presence or absence of 100 μM puromycin for 60 min. The reactions were quenched and resolved by HPLC. The radioactivity in collected fractions was determined by liquid scintillation counting. FIGS. 1f-g.) In vivo detection of OAADPr. Mass spectrum of HEK-293 generated OAADPr (peak m/z of 602.0894; the theoretical m/z for OAADPr is 602.0895) after puromycin treatment, with authentic [^13C]-OAADPr (peak m/z of 603.0851 and isotopic distribution of 604.0878 and 605.0928) as a standard. Peak 599.3691 is from the matrix. […]

[2] = system: nuclear acetyltransferase; test: Nuclear OAADPr acetyltransferase (OAADPr-metabolizing) activity in HEK-293 nuclear extract; type: biochemical; conditions: 100 μM puromycin, 60 min
Protocol: as §1, with “OAADPr.” for “OAADPr. Mass spectrum of HEK-293 generated OAADPr (peak m/z of 602.0894; the theoretical m/z for OAADPr is 602.0895) after puromycin treatment, with authentic [^13C]-OAADPr (peak m/z of 603.0851 and isotopic distribution of 604.0878 and 605.0928) as a standard. Peak 599.3691 is from the matrix.”
Cytoplasmic and nuclear extracts were prepared from HEK-293 cells as previously described (22). […] Aliquots of the supernatant containing [^3H]acetate were removed and analyzed by liquid scintillation counting. […] Radioactivity in each elution fraction was measured by liquid scintillation counting.

OAADPr esterase = test: Cytoplasmic OAADPr esterase activity in HEK-293 cytoplasmic extract; type: biochemical
Protocol: Shown is the development of whole cell currents over time in TRPM2-expressing HEK-293 cells. Bath solution was standard ringer's, and pipette solution was Cs-based and included 10 mM EGTA to buffer intracellular Ca^2+ to 10 nM. The patch pipette contained various concentrations of (FIG. 1a) ADPr, (FIG. 1b) OAADPr (FIG. 1c) OAADPr and puromycin as indicated in the figure. FIG. 1d.) Cytoplasmic OAADPr esterase activity is inhibited by puromycin. 200 μM O-[^3H]AADPr and 0-100 μM puromycin were added to cytoplasmic HEK-293 extract for 30 min. Percent hydrolysis of O-[^3H]AADPr to [^3H]acetate was measured as described hereinbelow. FIG. 1e.) Nuclear OAADPr acetyltransferase activity is not inhibited by puromycin. HEK-293 nuclear extract was incubated with 200 μM O-[^3H]AADPr in the presence or absence of 100 μM puromycin for 60 min. The reactions were quenched and resolved by HPLC. The radioactivity in collected fractions was determined by liquid scintillation counting. FIGS. 1f-g.) In vivo detection of OAADPr. Mass spectrum of HEK-293 generated OAADPr (peak m/z of 602.0894; the theoretical m/z for OAADPr is 602.0895) after puromycin treatment, with authentic [^13C]-OAADPr (peak m/z of 603.0851 and isotopic distribution of 604.0878 and 605.0928) as a standard. Peak 599.3691 is from the matrix.
Cytoplasmic and nuclear extracts were prepared from HEK-293 cells as previously described (22). To detect esterase activity (22), cytoplasmic extract was incubated with 200 μM O-[^3H]AADPr in the presence of 0-100 μM puromycin for 30 min. Activated charcoal slurry in PBS, pH 7.0 was added to quench the reaction and bind O-[^3H]AADPr. Samples were vortexed and centrifuged. Aliquots of the supernatant containing [^3H]acetate were removed and analyzed by liquid scintillation counting. To detect nuclear OAADPr metabolizing activity (22), nuclear extract was incubated with 200 μM O-[^3H]AADPr in the presence or absence of 100 μM puromycin for 60 min. The reaction was terminated by addition of TFA to 1%. […] Radioactivity in each elution fraction was measured by liquid scintillation counting.

HEK-293 cells = test: Cell viability assay (calcein fluorescence), parental HEK-293 cells; type: cell-based; conditions: parental HEK-293, 5-50 μM, 16 h
Protocol: Shown are HEK-293 cells (closed diamond) and HEK-293 cells stably transfected with a tet-controlled TRPM2 construct in the presence (open squares) or absence of (open diamonds) tetracycline. Cells incubated in the presence of 0-50 μM puromycin for 16 h were assayed for viability by measuring fluorescence of calcein in live cells. b.) Removal of calcium rescues cells from puromycin induced cell death. TRPM2-expressing HEK-293 cells were grown in complete DMEM media and 1 μg/ml tetracycline until 80-90% confluent. One set of cells were re-fed with the same complete media (closed diamonds) and the other set of cells were rinsed with PBS and fed with modified media containing 1 μg/ml tetracycline, 5 mM EGTA and without calcium chloride (open squares). […] HEK-293 (close diamond) and TRPM2 expressing HEK-293 cells in the absence (open diamond) or presence of (closed square) tetracycline were exposed to 0-10 μg/ml cycloheximide for 16 h. Cell viability was determined as described in (a).
HEK-293, tet-inducible HEK-293, and CRI-G1 cells were seeded into 6 well plates at a density of 500,000 cells per well. […] Calcein is retained in living, but not dead cells, where it undergoes catalytic conversion into a fluorescent compound Fluorescence in each well was measured in a microplate reader using excitation and emission filters at 485/530 nm, respectively.

COc1ccc(C[C@H](N)C(=O)N[C@H]2[C@@H](O)[C@H](n3cnc4c(N(C)C)ncnc43)O[C@@H]2CO)cc1 [puromycin]
cellular levels of OAADPr after treatment [1]: significantly detectable levels
effect on nuclear OAADPr-metabolizing activity [2]: no effect
inhibition of cytosolic esterase activity (OAADPr esterase; 5 μM puromycin): substantially inhibit
inhibition of esterase activity (OAADPr esterase; 80 μM puromycin): completely inhibited
inhibition of OAADPr esterase (OAADPr esterase; 200 μM O-[3H]AADPr, 0-100 μM puromycin, 30 min): potent inhibitor
cell death following puromycin treatment (HEK-293 cells): no significant cell death

— patent publication US8440638B2, “Compositions and methods for modulating calcium flux, glucose homeostasis and apoptosis” (Wisconsin Alumni Research Foundation, priority 2004, dated 2013)
